According to patent US4357341A, “Specific irreversible antagonism of histamine receptors by photoaffinity actuated compounds” (priority 1981, dated 1982):
Read-outs that look alike come from different tables or passages of the source. Values belong to the compound of their own block, whether it stands above or below them.

Experiments:
[1] = molecular target: T1, histamine receptor (H1), isolated guinea pig vas deferens (Cavia porcellus, UniProt P31389); assay: cell-based; design: Emax: dose or concentration left out as unconfirmed
T1 sequence (P31389 whole entry): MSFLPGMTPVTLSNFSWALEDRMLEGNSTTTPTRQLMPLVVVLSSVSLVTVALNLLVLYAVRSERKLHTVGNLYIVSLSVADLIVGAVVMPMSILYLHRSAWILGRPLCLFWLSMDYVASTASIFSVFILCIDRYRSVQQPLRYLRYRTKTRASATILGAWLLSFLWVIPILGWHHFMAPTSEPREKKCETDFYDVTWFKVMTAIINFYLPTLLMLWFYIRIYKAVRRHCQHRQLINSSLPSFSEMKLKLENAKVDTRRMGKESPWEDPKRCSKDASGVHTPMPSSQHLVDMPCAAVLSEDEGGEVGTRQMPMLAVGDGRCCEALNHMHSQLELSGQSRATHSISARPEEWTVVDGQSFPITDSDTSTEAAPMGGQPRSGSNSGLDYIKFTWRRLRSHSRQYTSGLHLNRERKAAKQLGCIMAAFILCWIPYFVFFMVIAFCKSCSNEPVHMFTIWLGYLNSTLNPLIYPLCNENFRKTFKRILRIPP
Procedure: Adult, albino guinea pigs (250-350 g; Hilltop Lab Animals, Scottdale, PA) were killed by a blow to the head. Vasa deferentia were removed, desheathed and mounted in conventional apparatus for the measurement of isometric contractile responses. Each tissue preparation was bathed in a separate glass, water-jacketed organ chamber containing modified Krebs-Henseleit solution (37° C.) for one hour prior to the beginning of the experiment. The tissues were washed every 15 minutes. Resting tension was 200 mg. Agonist agents were added to the bath with stepwise increases in concentration. The agonists were added at 10 minute intervals and the tissues were exposed to each concentration for 2 minutes; the tissues were washed twice with agonist-free Krebs-Henseleit solution, at 5 minute intervals, between agonist additions.
Effect of AAH after irradiation in the presence of histamine receptor ligands. […] AAH was then added to the test tissue, leaving the control exposed only to ligand, and after a 5-minute incubation, both the test and control tissues were irradiated for 5 minutes. Both tissues were washed twice with fresh Krebs-Henseleit solution to remove all agents, and concentration-response determinations were performed 10 minutes after irradiation.

[2] = system: smooth muscle of the guinea-pig vas deferens, KCl responses; assay: KCl-induced contraction of isolated vas deferens (specificity of AAH); assay type: cell-based
Procedure: (§1) The tissues were washed every 15 minutes. Resting tension was 200 mg.
(§2) The effects of AAH on the response of the smooth muscle of the guinea-pig vas deferens to several agonists were examined using the following protocols.
(§3) Effect of AAH after photoactivation. While in the organ bath, one tissue of a pair was exposed to AAH for 5 minutes. The preparation was then irradiated with a tungsten-halogen projector lamp (DVY, 650 W, 3400° K., filament ca. 10 cm from the tissue) for 5 minutes. Bath temperature remained at 37° C. during irradiation. At the end of irradiation the tissues were washed twice with fresh Krebs-Kenseleit solution lacking AAH. Concentration-response determinations were begun 10 minutes after irradiation. Contralateral control tissues were irradiated in the absence of AAH and otherwise handled identically. […] Also shown is the time-course of the decline of absorbance at 266 nm. The native spectrum, consisting of a pronounced peak at 266 nm, shoulder at 286 and broad peak at 480-485 nm, was changed by photolysis in a time-dependent manner to one with several smaller peaks and troughs.
(§4) Effect of AAH without photoactivation. Two types of experiments were performed with non-irradiated AAH. In the first type, the test tissue was exposed to AAH for 10 minutes but not irradiated during the latter five minutes; the AAH was washed out before agonist agents were added. That is, the same schedule as was used above was employed, but the preparations were not irradiated. In the second type of experiment with non-irradiated AAH, the compound was added to the bath 15 minutes before and remained present during the addition of agonists. The contralateral control tissues for these experiments received no treatment.

[3] = system: smooth muscle of the guinea-pig vas deferens, MgATP responses; assay: MgATP-induced contraction of isolated vas deferens (specificity of AAH); assay type: cell-based; details: 3×10^-5 M AAH
Procedure: as §1, §2, §3
(§5) Effect of AAH without photoactivation. Two types of experiments were performed with non-irradiated AAH. In the first type, the test tissue was exposed to AAH for 10 minutes but not irradiated during the latter five minutes; the AAH was washed out before agonist agents were added. […]

[4] = system: smooth muscle of the guinea-pig vas deferens, norepinephrine responses; assay: Norepinephrine-induced contraction of isolated vas deferens (specificity of AAH); assay type: cell-based; details: 3×10^-5 M AAH
Procedure: as §1, §2, §3, §5

[5] = system: smooth muscle of the guinea-pig vas deferens, acetylcholine responses; assay: Acetylcholine-induced contraction of isolated vas deferens (specificity of AAH); assay type: cell-based
Procedure: as §1, §2, §3, §4

[6] = Photolysis of AAH (absorbance decline at 266 nm); assay type: physicochemical
Procedure: FIG. 1 is spectra of 3×10^-5 M AAH (dissolved in modified Krebs-Henseleit solution) sampled before (solid line) and 5 minutes (dashed line) and 60 minutes (dotted line) after the beginning of irradiation. The reference cuvette contained modified Krebs-Henseleit solution. The inset illustrates the time-course of decline in absorbance a 266 nm; data points were obtained from scans performed after the irradiation intervals shown.
as §3

guinea pig vas deferens = assay: Direct contractile effect on isolated vas deferens; assay type: cell-based; details: AAH in the concentrations used
Procedure: as §1

[7] = molecular target: T1, histamine receptor (H1), isolated guinea pig vas deferens; assay: Histamine-induced contraction of isolated vas deferens after photolysis and washout of AAH; assay type: cell-based; design: smooth muscle of the guinea-pig vas deferens; from tissue; host or cells: isolated, desheathed vas deferens of adult albino guinea pigs (Hilltop Lab Animals, Scottdale, PA)
Procedure: as §1, §2, §3

[8] = molecular target: T1, histamine receptor (H1), isolated guinea pig vas deferens; assay: Histamine-induced contraction of isolated vas deferens after incubation with non-irradiated AAH and washout; assay type: cell-based; design: smooth muscle of the guinea-pig vas deferens; from tissue; host or cells: isolated, desheathed vas deferens of adult albino guinea pigs (Hilltop Lab Animals, Scottdale, PA); details: 3×10^-5 M AAH, 10 min incubation, not photoactivated, washed out
Procedure: as §1, §2, §4

[9] = molecular target: T1, histamine receptor (H1), isolated guinea pig vas deferens; assay: Histamine-induced contraction of isolated vas deferens in the continual presence of non-irradiated AAH; assay type: cell-based; design: smooth muscle of the guinea-pig vas deferens; from tissue; host or cells: isolated, desheathed vas deferens of adult albino guinea pigs (Hilltop Lab Animals, Scottdale, PA)
Procedure: as §1, §2, §4

[10] = 3×10^-5 M AAH, non-irradiated, continually present
[11] = 3×10^-5 M AAH, photoactivated, washed out
[12] = non-irradiated, continually present
[13] = 3×10^-6 M AAH, photolyzed, washed out
[14] = 10^-5 M AAH, photolyzed, washed out

SMILES: NCCc1c[nH]cn1 [histamine, 2-(4-imidazolyl)ethylamine]
protection against AAH-induced antagonism when present during photoactivation of AAH ([1]; 3×10^-4 M histamine with AAH, n=4): no protective effect
Emax ([1]; read-out: response of the tissue, % of maximum response to histamine): 90 to 100%

SMILES: [N-]=[N+]=Nc1ccc(NCCc2c[nH]cn2)c([N+](=O)[O-])c1 [AAH, 4(5)-[2-(4-azido-2-nitroanilino)ethyl]imidazole]
effect on concentration-response relationship for KCl [2, 10]: no significant effect on concentration-response relationships
effect on maximum responses or EC50's of KCl [2, 11]: no effect on the maximum responses or EC50's
EC50 ([2]; Cavia porcellus, light or radiation study, read-out: EC50 of KCl, AAH, 3×10^-5 M AAH, non-irradiated, continually present): 15.3 mM
EC50 ([2]; Cavia porcellus, light or radiation study, read-out: EC50 of KCl, AAH, 3×10^-5 M AAH, photoactivated, washed out): 19.5 mM
shift of MgATP concentration-response curve to the left of control [3, 12]: 12.89 fold
effect on maximum responses or EC50's of MgATP ([3]; photoactivated, washed out): no effect on the maximum responses or EC50's
shift of norepinephrine concentration-response curve to the left of control [4, 12]: 5.50 fold
effect on maximum responses or EC50's of NE ([4]; photoactivated, washed out): no effect on the maximum responses or EC50's
effect on concentration-response relationship for ACh [5, 10]: no significant effect on concentration-response relationships
effect on the maximum response to ACh [5, 11]: no effect on the maximum response to ACh
shift of the ACh concentration-response curve to the right of control [5, 11]: 3.07 fold
responses to acetylcholine after photolysis of AAH ([5]; photolyzed AAH): only slightly reduced
half-life at 30 µM ([6]; 3×10^-5 M AAH, modified Krebs-Henseleit solution, tungsten-halogen lamp 650 W, read-out: t1/2 of first-order absorbance reduction at 266 nm caused by photolysis): 3.8 min
percent of the maximum absorbance reduction produced by the 5-minute photoaffinity labeling period ([6]; 5 min irradiation, 266 nm): ca. 62%
contraction upon addition to the organ bath (guinea pig vas deferens): did not cause a contraction
reversal of antagonism by repeated washing ([7]; 3×10^-5 M AAH, photolyzed): not reversed by repeated washing
effect on the response of the tissues to histamine ([7]; 3×10^-5 M AAH, photolyzed, washed out): abolished the response of the tissues to histamine
effect on maximum response to histamine [7, 13]: small but significant decrease in the maximum response to histamine
shift of the histamine concentration-response curve to the left of control [7, 13]: 1.89 fold
effect on the response of the tissues to histamine [7, 14]: intermediate and irreversible antagonism
shape of histamine concentration-response curve [7, 14]: "bell"-shaped
concentration range over which antagonism by AAH occurred ([7]; photolyzed AAH): 10 fold
residual effect on responses to histamine [8]: no residual effect on responses to histamine
effect on the response to histamine [9, 10]: abolished the response to histamine
shift of the histamine concentration-response curve to the left of control ([9]; 3×10^-6 M AAH, non-irradiated, continually present): 2.01 fold
shape of histamine concentration-response curve ([9]; 10^-5 M AAH, non-irradiated, continually present): "bell-shaped" concentration-response curve
concentration range over which antagonism by AAH was observed ([9]; non-irradiated AAH, continually present): 10 fold
reversibility of antagonism of histamine by non-photolyzed AAH ([9]; not irradiated): reversible if not irradiated

EC50 ([2]; irradiated control without AAH, read-out: EC50 of KCl, control): 20 mM
EC50 ([2]; non-irradiated control without AAH, read-out: EC50 of KCl, control): 25 mM
SMILES: [Cl-].[K+] [KCl, reference compound]
